Consider 6 compounds from ChEMBL document CHEMBL1201862, “PubChem BioAssay data set” (2004).

The nature of assay [1]: cytotoxicity toward NIH3T3 fibroblasts, dose response, counter-screen, cell-based, ATP luminescence, mouse fibroblasts (AID 2010).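 Also: cells exposed to compound for about 90 hours before reading.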 The assay is classed as functional.
The target of assay [2] is Prothrombin (Bos taurus, UniProt P00735). The assay can be described thus: thrombin inhibition, dose response, biochemical, fluorescence polarization, uHTS hits (AID 602369). Format: functional. (In general: In fluorescence polarisation assays a small probe gives low polarisation when free and higher when bound to something large.)
Assay [3] concerns the target T1, Kappa-type opioid receptor (Homo sapiens, UniProt P41145). Format: functional.
In assay [4] the target is Protein Wnt-3a (Mus musculus, UniProt P27467). The assay can be described thus: Wnt3a-driven reporter signaling inhibition, dose response, selectivity assay for Gli-SUFU antagonist project, Wnt-LIGHT cells, luminescence (AID 651570).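 Also: Wnt-LIGHT reporter cells stimulated with conditioned medium from Wnt3a-producing cells.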 Conditions: read-out: IC50_Mean. The assay is classed as functional.
In assay [5] the target is Hexokinase-1 (Homo sapiens, UniProt P19367). The assay can be described thus: hexokinase 1 activators, dose response, selectivity assay for HKDC1 activator project, biochemical (AID 504762). Format: functional.
The target of assay [6] is T2, Hexokinase HKDC1 (Homo sapiens, UniProt Q2TB90).
T2 sequence (Q2TB90 whole entry): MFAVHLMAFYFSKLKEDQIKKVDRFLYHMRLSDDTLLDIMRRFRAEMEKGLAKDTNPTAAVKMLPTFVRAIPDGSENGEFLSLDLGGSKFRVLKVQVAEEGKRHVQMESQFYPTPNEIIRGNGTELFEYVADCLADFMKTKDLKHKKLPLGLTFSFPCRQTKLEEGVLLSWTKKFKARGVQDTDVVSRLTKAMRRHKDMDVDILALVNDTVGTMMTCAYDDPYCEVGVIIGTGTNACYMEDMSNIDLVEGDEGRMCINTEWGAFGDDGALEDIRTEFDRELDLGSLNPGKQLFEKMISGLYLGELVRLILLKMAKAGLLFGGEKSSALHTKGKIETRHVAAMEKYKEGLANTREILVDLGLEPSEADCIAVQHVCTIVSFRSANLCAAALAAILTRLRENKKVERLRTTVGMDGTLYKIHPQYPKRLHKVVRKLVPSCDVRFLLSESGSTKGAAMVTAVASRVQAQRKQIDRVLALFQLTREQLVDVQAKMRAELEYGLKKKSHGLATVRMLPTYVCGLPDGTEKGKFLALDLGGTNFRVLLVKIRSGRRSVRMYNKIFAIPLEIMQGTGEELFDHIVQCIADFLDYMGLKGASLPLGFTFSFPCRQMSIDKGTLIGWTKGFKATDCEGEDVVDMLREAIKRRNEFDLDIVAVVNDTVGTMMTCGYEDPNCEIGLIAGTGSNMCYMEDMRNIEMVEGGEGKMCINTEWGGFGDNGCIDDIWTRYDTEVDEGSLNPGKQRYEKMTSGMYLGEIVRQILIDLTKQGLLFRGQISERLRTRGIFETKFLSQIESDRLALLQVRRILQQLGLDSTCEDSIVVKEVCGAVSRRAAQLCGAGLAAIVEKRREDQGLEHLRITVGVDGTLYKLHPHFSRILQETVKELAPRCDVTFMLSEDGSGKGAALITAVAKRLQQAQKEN
Kind of assay: HKDC1 hexokinase activators, dose response, biochemical, W721R variant (AID 504730). The assay is classed as functional.

For assay [7], the target named is T1, Kappa-type opioid receptor. Format: functional. This is another data set of the same source.
Assay [8] can be described thus: inhibitors of intracellular T. cruzi replication, confirmation, NIH3T3 host cells, beta-gal luminescence (AID 2044).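 Also: intracellular parasites grown in NIH/3T3 mouse fibroblasts as host cells; luminescent beta-galactosidase reporter signal from transgenic T. cruzi replicating inside host cells; inhibitors lower the luminescence signal.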 The assay is classed as functional, cell-based.
Assay [9] deals with 26S proteasome non-ATPase regulatory subunit 14 (Homo sapiens, UniProt O00487). Kind of assay: inhibition of proteasome subunit RPN11 – biochemical, fluorescence polarization, uHTS hits, confirmation (AID 602368). Format: functional.
For assay [10], the target named is 72 kDa type IV collagenase (Homo sapiens, UniProt P08253). Kind of assay: Dose Response validation of uHTS RPN11 inhibitor hits using a MMP-2 Fluorescence assay. The assay is classed as functional.
Assay [11] addresses T3, Beta-galactosidase (Escherichia coli, UniProt Q8VNN2). The assay is classed as functional.
For assay [12], the target named is T4, Type-1 angiotensin II receptor (Homo sapiens, UniProt P30556).
T4 sequence (P30556 whole entry): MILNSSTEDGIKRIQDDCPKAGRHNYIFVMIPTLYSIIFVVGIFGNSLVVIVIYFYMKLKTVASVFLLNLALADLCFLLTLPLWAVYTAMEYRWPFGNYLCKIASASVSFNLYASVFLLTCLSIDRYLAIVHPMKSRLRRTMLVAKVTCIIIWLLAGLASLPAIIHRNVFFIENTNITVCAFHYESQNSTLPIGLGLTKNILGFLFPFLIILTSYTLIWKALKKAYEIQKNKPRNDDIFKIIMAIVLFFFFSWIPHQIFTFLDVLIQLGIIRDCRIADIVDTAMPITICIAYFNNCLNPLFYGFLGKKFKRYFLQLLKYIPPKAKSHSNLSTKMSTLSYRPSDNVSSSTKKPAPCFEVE
Kind of assay: AT1 receptor antagonists, dose response, selectivity assay for APJ receptor antagonist project, cell-based, uHTS hits (AID 463214).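 Also: antagonist potency against angiotensin II stimulated AT1 response.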 The assay is classed as functional.

Assay [13] has as its target T3, Beta-galactosidase. Kind of assay: PubChem AID 485352. Format: functional.
For assay [14], the target named is Sphingosine 1-phosphate receptor 4 (Homo sapiens, UniProt O95977). The assay can be described thus: Late-stage fluorescence dose response cell-based assay to identify agonists of the Sphingosine 1-Phosphate Receptor 4 (S1P4): purchased compounds EC50. [Related pubchem assays (depositor defined):AID1509, AID1523, AID1563, AID1686, AID1701, AID1801]. Format: functional.

The target in assay [15] is Perilipin-1/ABHD5 (Homo sapiens, UniProt O60240+Q8WTS1). Kind of assay: Luminescence-based biochemical high throughput dose response assay for inhibitors of the interaction of the lipase co-activator protein, abhydrolase domain containing 5 (ABHD5) with perilipin-1 (PLIN1) (2K validation set). [Related pubchem assays (depositor defined):AID493027, AID493057].
Assay [16] deals with 1-acylglycerol-3-phosphate O-acyltransferase ABHD5/Perilipin-5 (Homo sapiens, UniProt Q00G26+Q8WTS1). The assay can be described thus: Luminescence-based biochemical high throughput dose response assay for inhibitors of the interaction of the lipase co-activator protein, abhydrolase domain containing 5 (ABHD5) with perilipin-5 (MLDP; PLIN5) (2K validation set). [Related pubchem assays (depositor defined):AID493035, AID493241].

Assay [17] addresses Ephrin type-A receptor 4 (Mus musculus, UniProt Q03137). Kind of assay: inhibitors of EphA4 binding to KYL peptide, primary screen, biochemical, colorimetric, mouse EphA4 (AID 689). The assay is classed as functional.
The target of assay [18] is Trypsin (Sus scrofa, UniProt P00761). The assay can be described thus: porcine trypsin inhibitors, dose response, selectivity assay for Rce1 protease inhibitor project, biochemical, quenched peptide fluorescence, cherry-pick (AID 488789).
Assay [19] addresses T5, CAAX prenyl protease 2 (Saccharomyces cerevisiae S288c, UniProt Q03530).
T5 sequence (Q03530 whole entry): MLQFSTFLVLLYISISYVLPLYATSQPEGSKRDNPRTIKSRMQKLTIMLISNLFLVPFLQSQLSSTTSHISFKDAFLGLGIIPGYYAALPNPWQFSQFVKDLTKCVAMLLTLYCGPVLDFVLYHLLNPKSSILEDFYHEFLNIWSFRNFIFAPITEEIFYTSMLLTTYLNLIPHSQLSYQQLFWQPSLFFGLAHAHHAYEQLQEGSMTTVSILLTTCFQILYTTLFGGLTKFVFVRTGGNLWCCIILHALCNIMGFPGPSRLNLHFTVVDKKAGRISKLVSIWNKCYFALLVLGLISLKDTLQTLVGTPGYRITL
Format: biochemical.

For assay [20], the target named is CAAX prenyl protease 1 (Saccharomyces cerevisiae S288c, UniProt P47154). Kind of assay: Ste24 protease inhibitors, dose response, biochemical, S. cerevisiae, plate reader, cherry-pick (AID 488815).
Assay [21] has as its target T6, Mannose-6-phosphate isomerase (Homo sapiens, UniProt P34949).
T6 sequence (P34949 whole entry): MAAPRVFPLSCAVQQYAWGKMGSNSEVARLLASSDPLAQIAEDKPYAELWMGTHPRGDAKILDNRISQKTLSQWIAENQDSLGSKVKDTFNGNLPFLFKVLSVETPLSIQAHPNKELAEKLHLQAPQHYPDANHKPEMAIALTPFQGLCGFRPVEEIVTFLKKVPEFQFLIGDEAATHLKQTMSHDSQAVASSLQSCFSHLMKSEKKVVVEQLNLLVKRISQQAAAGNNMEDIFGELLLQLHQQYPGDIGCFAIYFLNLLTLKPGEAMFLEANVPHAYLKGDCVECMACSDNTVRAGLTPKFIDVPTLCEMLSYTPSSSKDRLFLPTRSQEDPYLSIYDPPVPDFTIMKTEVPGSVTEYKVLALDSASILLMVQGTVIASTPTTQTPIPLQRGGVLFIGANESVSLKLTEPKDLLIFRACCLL
The assay can be described thus: PMI enzyme inhibitors, confirmation, biochemical, fluorescence intensity (AID 1535).

The target in assay [22] is Phosphomannomutase 2 (Homo sapiens, UniProt O15305). Kind of assay: Counter screen SAR assay for PMM2 inhibitors via a fluorescence intensity assay. [Related pubchem assays (depositor defined):AID1545, AID1574]. In general terms: Counterscreens check selectivity or assay interference.
Assay [23] concerns the target Phosphoethanolamine/phosphocholine phosphatase (Homo sapiens, UniProt Q8TCT1). Kind of assay: SAR assay for compounds that inhibit PHOSPHO1. [Related pubchem assays (depositor defined):AID1545, AID1565, AID1574].
Assay [24] concerns the target Dual specificity protein phosphatase 3 (Homo sapiens, UniProt P51452). The assay can be described thus: SAR VHR1 Fluorescent Assay for In Vitro dose response studies Set 2. [Related pubchem assays (depositor defined):AID1654, AID1661, AID1878]. Format: functional.
The target in assay [25] is T7, Tyrosine-protein phosphatase non-receptor type 7 (Homo sapiens, UniProt P35236).
T7 sequence (P35236 whole entry): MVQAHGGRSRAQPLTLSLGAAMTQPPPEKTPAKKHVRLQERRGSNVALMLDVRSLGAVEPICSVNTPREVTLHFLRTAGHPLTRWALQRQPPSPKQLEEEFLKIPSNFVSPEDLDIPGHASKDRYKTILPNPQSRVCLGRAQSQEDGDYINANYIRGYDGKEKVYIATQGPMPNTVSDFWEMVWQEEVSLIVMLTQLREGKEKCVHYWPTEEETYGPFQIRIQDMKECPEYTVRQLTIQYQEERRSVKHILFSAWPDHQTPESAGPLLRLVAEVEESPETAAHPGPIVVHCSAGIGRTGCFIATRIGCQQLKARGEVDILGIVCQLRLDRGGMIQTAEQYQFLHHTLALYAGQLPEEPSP
The assay can be described thus: SAR analysis of chemical inhibitors of HePTP using a Fluorescent assay - Set 2. [Related pubchem assays (depositor defined):AID1059, AID1077, AID1661, AID2085, AID521]. The assay is classed as functional.

Molecules are shown by their SMILES. Active and inactive are the calls of the source.

T1 sequence (P41145 whole entry): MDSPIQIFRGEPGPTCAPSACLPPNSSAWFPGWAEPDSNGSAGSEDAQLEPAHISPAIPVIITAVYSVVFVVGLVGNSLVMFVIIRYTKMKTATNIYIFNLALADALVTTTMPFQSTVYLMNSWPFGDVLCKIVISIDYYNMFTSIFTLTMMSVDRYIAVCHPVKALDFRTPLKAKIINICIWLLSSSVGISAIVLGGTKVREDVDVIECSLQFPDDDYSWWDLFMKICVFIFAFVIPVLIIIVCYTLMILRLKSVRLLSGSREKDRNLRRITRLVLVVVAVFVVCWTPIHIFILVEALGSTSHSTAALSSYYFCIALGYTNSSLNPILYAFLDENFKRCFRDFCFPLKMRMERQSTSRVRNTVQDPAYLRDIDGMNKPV
T3 sequence (Q8VNN2 whole entry): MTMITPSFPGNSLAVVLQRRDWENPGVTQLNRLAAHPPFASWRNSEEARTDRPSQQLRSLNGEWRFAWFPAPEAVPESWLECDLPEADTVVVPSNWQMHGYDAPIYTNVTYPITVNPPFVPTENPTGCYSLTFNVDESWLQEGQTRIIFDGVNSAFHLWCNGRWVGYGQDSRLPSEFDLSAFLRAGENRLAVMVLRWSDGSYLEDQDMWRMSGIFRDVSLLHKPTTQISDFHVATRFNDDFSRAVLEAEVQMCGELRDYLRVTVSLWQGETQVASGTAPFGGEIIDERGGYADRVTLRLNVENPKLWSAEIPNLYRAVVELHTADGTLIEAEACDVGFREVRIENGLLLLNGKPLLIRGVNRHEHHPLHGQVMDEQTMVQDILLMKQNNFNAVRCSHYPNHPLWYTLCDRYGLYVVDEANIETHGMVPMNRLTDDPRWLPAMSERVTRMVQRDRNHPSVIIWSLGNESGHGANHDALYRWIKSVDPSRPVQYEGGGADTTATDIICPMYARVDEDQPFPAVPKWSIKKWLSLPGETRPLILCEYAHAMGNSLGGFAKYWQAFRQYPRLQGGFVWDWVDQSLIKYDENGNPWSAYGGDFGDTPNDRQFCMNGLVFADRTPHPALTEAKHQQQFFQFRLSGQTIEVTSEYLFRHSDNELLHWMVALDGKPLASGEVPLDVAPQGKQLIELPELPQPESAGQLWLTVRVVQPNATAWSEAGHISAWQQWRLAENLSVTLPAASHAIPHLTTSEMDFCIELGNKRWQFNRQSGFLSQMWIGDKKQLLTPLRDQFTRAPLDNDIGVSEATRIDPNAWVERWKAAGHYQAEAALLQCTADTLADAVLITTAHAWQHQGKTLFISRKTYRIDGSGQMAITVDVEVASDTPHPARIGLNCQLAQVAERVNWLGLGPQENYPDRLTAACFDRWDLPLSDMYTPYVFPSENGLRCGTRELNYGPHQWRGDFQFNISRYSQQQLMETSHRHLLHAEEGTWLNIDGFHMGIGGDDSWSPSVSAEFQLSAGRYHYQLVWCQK
Sphingosine 1-phosphate receptor 4, sequence (O95977 whole entry): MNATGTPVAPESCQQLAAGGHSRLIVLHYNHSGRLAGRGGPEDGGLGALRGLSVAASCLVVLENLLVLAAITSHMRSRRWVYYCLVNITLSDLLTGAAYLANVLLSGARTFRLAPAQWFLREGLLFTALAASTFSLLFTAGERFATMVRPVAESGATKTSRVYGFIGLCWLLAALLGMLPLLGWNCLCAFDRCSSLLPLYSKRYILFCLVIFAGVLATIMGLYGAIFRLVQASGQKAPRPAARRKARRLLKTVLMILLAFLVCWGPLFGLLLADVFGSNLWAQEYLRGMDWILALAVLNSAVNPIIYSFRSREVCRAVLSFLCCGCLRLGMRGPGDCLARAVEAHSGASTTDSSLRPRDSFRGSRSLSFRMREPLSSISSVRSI
Perilipin-1/ABHD5, sequence (Q8WTS1 whole entry, the tested form may be a part): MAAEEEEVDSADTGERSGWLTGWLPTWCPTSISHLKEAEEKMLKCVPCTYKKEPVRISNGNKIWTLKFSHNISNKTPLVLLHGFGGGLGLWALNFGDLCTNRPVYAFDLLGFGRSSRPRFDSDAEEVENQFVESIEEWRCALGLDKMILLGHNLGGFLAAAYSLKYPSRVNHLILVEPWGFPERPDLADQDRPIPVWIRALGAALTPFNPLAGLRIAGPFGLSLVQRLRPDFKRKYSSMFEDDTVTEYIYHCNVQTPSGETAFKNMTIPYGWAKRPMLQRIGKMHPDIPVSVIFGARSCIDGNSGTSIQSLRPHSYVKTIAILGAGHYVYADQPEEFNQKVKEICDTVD
Perilipin-1/ABHD5, sequence (O60240 whole entry, the tested form may be a part): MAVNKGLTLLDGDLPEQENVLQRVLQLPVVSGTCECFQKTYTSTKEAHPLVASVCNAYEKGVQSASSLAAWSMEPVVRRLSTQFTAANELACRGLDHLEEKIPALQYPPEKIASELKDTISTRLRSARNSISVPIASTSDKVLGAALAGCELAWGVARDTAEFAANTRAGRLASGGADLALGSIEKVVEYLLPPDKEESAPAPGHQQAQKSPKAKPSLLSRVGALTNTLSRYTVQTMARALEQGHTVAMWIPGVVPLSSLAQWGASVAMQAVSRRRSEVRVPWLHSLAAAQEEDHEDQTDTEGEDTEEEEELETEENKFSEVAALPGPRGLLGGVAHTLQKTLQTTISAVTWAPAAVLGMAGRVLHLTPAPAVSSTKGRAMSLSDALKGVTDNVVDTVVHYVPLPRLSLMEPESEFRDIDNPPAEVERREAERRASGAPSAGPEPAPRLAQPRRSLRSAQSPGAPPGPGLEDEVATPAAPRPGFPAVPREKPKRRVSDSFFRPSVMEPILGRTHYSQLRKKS
26S proteasome non-ATPase regulatory subunit 14, sequence (O00487 whole entry): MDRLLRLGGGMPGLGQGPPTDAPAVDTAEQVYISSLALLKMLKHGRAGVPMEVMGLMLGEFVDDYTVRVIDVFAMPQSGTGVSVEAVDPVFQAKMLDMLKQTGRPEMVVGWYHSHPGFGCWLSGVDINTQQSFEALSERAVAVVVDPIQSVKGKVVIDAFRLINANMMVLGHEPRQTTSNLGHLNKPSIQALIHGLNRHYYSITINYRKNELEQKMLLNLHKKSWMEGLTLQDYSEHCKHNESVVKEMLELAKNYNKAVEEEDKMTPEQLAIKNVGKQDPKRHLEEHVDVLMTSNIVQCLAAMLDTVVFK
CAAX prenyl protease 1, sequence (P47154 whole entry): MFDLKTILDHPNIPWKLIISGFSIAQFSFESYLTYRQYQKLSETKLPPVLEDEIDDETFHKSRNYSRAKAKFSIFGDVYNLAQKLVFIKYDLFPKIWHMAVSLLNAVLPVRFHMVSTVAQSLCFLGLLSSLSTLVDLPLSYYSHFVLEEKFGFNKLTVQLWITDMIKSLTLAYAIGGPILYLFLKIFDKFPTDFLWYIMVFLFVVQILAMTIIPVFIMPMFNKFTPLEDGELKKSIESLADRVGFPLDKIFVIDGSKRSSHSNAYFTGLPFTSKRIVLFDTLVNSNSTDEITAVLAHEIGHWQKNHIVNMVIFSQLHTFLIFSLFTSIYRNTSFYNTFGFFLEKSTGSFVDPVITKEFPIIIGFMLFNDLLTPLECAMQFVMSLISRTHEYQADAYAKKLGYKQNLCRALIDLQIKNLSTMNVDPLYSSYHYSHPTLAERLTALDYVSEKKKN
Phosphomannomutase 2, sequence (O15305 whole entry): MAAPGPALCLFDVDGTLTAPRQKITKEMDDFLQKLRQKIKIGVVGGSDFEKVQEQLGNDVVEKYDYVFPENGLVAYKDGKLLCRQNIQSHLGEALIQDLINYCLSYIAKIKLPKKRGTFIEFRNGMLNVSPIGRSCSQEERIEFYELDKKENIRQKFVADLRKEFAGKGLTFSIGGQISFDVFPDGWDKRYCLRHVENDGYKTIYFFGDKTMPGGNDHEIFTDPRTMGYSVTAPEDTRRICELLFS
1-acylglycerol-3-phosphate O-acyltransferase ABHD5/Perilipin-5, sequence (Q00G26 whole entry, the tested form may be a part): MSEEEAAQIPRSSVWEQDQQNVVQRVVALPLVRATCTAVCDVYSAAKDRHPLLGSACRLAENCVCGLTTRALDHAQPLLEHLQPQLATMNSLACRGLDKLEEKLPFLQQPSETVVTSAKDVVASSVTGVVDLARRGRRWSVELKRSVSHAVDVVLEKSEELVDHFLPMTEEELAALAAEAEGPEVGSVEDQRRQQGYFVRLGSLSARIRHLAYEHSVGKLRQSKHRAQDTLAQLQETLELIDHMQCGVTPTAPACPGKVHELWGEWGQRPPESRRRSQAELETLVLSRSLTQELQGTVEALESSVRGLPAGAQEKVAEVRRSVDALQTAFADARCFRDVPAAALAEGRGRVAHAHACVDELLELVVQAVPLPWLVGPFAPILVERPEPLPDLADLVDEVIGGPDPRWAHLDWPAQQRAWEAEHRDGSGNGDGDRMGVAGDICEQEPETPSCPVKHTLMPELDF
1-acylglycerol-3-phosphate O-acyltransferase ABHD5/Perilipin-5, sequence (Q8WTS1 whole entry, the tested form may be a part): as the sequence (Q8WTS1 whole entry, the tested form may be a part) above
72 kDa type IV collagenase, sequence (P08253 whole entry): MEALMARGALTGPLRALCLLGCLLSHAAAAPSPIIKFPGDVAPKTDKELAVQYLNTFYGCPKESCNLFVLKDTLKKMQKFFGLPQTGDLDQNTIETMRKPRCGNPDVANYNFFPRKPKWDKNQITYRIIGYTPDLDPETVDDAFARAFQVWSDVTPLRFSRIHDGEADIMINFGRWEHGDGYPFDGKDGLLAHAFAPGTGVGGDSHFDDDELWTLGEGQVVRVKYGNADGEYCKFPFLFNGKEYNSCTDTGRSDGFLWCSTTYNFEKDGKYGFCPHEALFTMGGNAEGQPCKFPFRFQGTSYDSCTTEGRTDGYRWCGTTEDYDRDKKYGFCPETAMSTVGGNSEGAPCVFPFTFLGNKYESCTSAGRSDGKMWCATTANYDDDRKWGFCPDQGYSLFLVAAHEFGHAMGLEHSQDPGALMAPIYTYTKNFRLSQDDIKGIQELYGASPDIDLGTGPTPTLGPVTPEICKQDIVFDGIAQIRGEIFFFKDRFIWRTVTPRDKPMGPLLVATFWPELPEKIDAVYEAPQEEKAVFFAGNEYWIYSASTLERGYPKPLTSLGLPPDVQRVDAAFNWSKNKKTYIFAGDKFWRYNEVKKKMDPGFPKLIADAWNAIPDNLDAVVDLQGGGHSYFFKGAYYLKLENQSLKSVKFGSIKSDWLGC

One may read the EC50 as the concentration giving half of the maximal effect. For the compound `CC(=O)/C(=N\Nc1ccc(Cl)cc1Cl)Sc1cccc2cccnc12`, the EC50 in assay [1] is 26.7 µM (active); in assay [5], > 80 µM (inactive); in assay [6], 15.5 µM (active); in assay [8] it was 0.289 µM (active); in assay [11], > 31.5 µM (inactive); in [13] it was > 40 µM (inactive). Further, the IC50 in assay [2] was > 100 µM (inactive); in assay [3], 9.32 µM (active); in assay [4], 11.4 µM (active); in assay [7] it was greater than 32 µM; in assay [9], 32.2 µM (active); in assay [10] it was > 100 µM (inactive). Further, the IC50 in [12] was 10.6 µM (active).

`Cc1ccc(OCC(=O)Nc2ccc(Cl)cc2)c([N+](=O)[O-])n1`: the EC50 in assay [14] is > 50 µM (inactive).

In the case of `CC1(c2ccccc2)CC(C)(C)N2C(=O)C(=O)c3cccc1c32` (stereo not given), the IC50 in [15] is 19 µM (inactive); in assay [16] it was 21.7 µM (inactive).

The term AC50 denotes the concentration giving half of the maximal activity seen. In the case of `O=C(O)c1ccc(CN(c2ccccn2)S(=O)(=O)c2ccccc2)cc1`, the IC50 in assay [17] is given as > 100 µM (not active). Besides, the AC50 was 16.6 µM (active) in assay [18], 22 µM (active) in [19] and 3.92 µM (active) in [20].

Turning to `O=c1c2ccc([N+](=O)[O-])cc2sn1-c1cc(C(F)(F)F)ccc1Cl`, the results for the IC50 in [21], in [22] and in assay [23] were > 50 µM (inactive), > 100 µM (inactive) and 0.252 µM (active), respectively.

Consider `Oc1ccc(C(=S)NCc2ccc(F)c(C(F)(F)F)c2)cc1`, for which the values for the IC50 in assay [24] and in [25] were 40.9 µM (active) and 30.9 µM (active), respectively.
